Data from patent publication US10117854B2, “Method for treating hepatic encephalopathy” (MEDDAY PHARMACEUTICALS, priority 2016, dated 2018).
Like-named read-outs stand apart in the source and are kept apart here.

Key:
[1] = test system: BDL rats; assay: Open Field Test (behavioral test of hepatic encephalopathy); assay type: in vivo, rat; conditions: for OpenField test results compared with high-dose biotin: data not shown
Description: Bile duct ligation (BDL) was used as a biliary cirrhosis model. All rats oh this group were operated on. They were randomly separated in two groups: BDL or simple laparotomy (SHAM, control-group). The BDL procedure was conducted as described previously (Kountouras J, Prolonged bile duct obstruction: a new experimental model for cirrhosis in the rat; Br J Exp Pathol 1984) and as controlled in our lab. Surgery was done under total anesthesia with […] isofluran (Aerrane, Baxter Maurepas) 3% mixed with air. Analgesia was done by sub-cutaneous injection of buprenorphin 2% (Buprécare 0.3 mg/ml, Axience) immediately before and after surgery. Rifaximin (Sigma Aldrich) was mixed with water at the dose of 50 mg/kg/d and began 3 days after the surgery. […] To assess the hepatic encephalopathy, the Open Field Test (BioSeb) was used, a behavioral test validated in BDL rats to explore neurological impairments (Leke, Plos One 2012; 7(5)). The test was done the day of sacrifice, in standardized experimental conditions (hour, place, light, noise). Each rat was placed in a square 1 m^2 box and was free to explore the arena during 6 minutes. Two areas were defined in the square, center and periphery. Mobility parameters were registered by a three-dimensional camera. The data analyzed after 6 minutes of experiments were: total distance travelled (cm), time of mobility (s), speed (cm/s), number of zone changes, distance travelled in the center and periphery zone, time spent in the center and periphery zone, number of rearing, total duration of rearing.

[2] = test system: BDL rats
Description: The integrity of BBB was investigated by measuring the extravasation from intra-vascular compartment of dextran-Texas Red (Life Technologies) conjugated.
Six weeks after the surgery, all rats were anesthetized with inhaleted isofluran 3%. 0.75 ml of fluorochrome was injected in the femoral vein (Texas Red 10 kDa 10 mg/ml) and circulated during 6 minutes. […] To remove the intravascular localized dye, we did a large thoracotomy to perfuse 300 ml of cold PBS (40 ml/min with a peristaltic pump) through the left cardiac ventricle.
After decapitation, the brain was rapidly removed and the olfactory bulbs and brain stem eliminated with the cerebellum.
After grinding the right hemisphere by vigorously shaking and centrifugation, the amount of fluorescent dextran (μg/g) in supernatants was measured by fluorimetry (Tecan Infinite M200) at 620 nm upon excitation at 588 nm. The content of dye was valued by interpolation in standard curve.

[3] = test system: IFNγ; assay: Plasmatic cytokines by multiplex kit; assay type: in vivo, rat; conditions: BDL rats treated with biotin (300 mg/kg food)
Description: (§1) The blood sample taken during the sacrifice was centrifuged and the plasma was used to determine the levels of hepatic transaminases, total and conjugated bilirubin and ammonia. Plasmatic cytokines (IL6, TNFa, IFNg) were determined by a multiplex commercial kit.

[4] = test system: rats, acute liver failure induced by single high dose of CCl4; conditions: prior art; biotin 0.5 mg/kg BW single intraperitoneal injection, or oral with uncontrolled amount; cited from earlier work
[5] = in vivo; cited from earlier work
[6] = test system: BDL rats; assay: Blood ammoniemia in bile duct ligated rats; assay type: in vivo, rat; conditions: biotin 300 mg/kg of food (30 mg/kg BW/day), ANOVA p=0.01, FIG. 6
Description: Adult male Wistar rats (weight 175-200 g at the initiation of the surgical procedure) were obtained from the Janvier labs (Le Gesnest-Saint-Isle) and were used for the whole experiments.
Bile duct ligation (BDL) was used as a biliary cirrhosis model. All rats oh this group were operated on. They were randomly separated in two groups: BDL or simple laparotomy (SHAM, control-group). The BDL procedure was conducted as described previously (Kountouras J, Prolonged bile duct obstruction: a new experimental model for cirrhosis in the rat; Br J Exp Pathol 1984) and as controlled in our lab. Surgery was done under total anesthesia with inhalated isofluran (Aerrane, Baxter Maurepas) 3% mixed with air. Analgesia was done by sub-cutaneous injection of buprenorphin 2% (Buprécare 0.3 mg/ml, Axience) immediately before and after surgery.
as §1

CO[C@H]1/C=C/O[C@@]2(C)Oc3c(C)c(O)c4c(O)c(c5c(nc6cc(C)ccn65)c4c3C2=O)NC(=O)/C(C)=C\C=C\[C@H](C)[C@H](O)[C@@H](C)[C@@H](O)[C@@H](C)[C@H](OC(C)=O)[C@@H]1C [rifaximin, Rifaximin]
OpenField test results compared with high-dose biotin ([1]; rifaximin 50 mg/kg/d in water): similar

O=C([O-])c1ccccc1.[Na+] [sodium benzoate, Sodium benzoate]
OpenField test results compared with high-dose biotin ([1]; sodium benzoate 200 mg/kg/d in water): similar

O=C(O)CCCC[C@@H]1SC[C@@H]2NC(=O)N[C@@H]21 [biotin]
intra-cerebral quantity of dextran (BBB permeability) ([2]; BDL rats, biotin 300 mg/kg of food, vs BDL rats on control diet): normalize | intra-cerebral quantity of dextran (BBB permeability) ([2]; BDL rats, biotin 300 mg/kg of food, vs BDL rats on control diet, listed as Biotin): normalization of BBB permeability | intra-cerebral quantity of dextran (BBB permeability) ([2]; biotin 50 mg/kg of food): did not reach normalization | IFNγ levels in plasma [3]: decreased | serum ammonium level [4]: decrease the serum ammonium level | neurological impairements observed in the OpenField test ([1]; biotin 50 mg/kg of food (5 mg/kg of animal/day)): not high enough to have an effect | neurological impairements observed in the OpenField test ([1]; biotin 300 mg/kg of food (30 mg/kg of animal/day), vs BDL rats without biotin): reduced | neurological impairements observed in the OpenField test ([1]; biotin 300 mg/kg of food (30 mg/kg of animal/day), vs BDL rats without biotin, listed as Biotin): comportmental improvement | plasma half life [5]: about 2 hours | hyperammonemia (blood ammoniemia) [6]: reduce hyperammonemia
